Measurements published in patent US20110319464A1, “METHODS FOR TREATING BENIGN PROSTATIC HYPERPLASIA” (KISSEI PHARMACEUTICAL CO., LTD., priority 2007, published 2011).
Like-named read-outs stand apart in the source and are kept apart here.

How the values were obtained:
symptoms of BPH [1] = experiment: Study E: 8 mg Silodosin Once Daily (SI04010), U.S. Phase 3 Study; type: in vivo, human; conditions: 8 mg once daily
Description: (§1) In addition, the results for IPSS/AUASS for studies A, B, D and E are illustrated in FIGS. 3 to 6, respectively, and the results for Qmax for studies A, B, D and E are illustrated in FIGS. 7 to 10, respectively.

[2] = test system: LUTS associated with benign prostatic hyperplasia; conditions: 4 mg silodosin twice daily; cited from earlier work
[3] = Pharmacokinetic Study on Silodosin (Study 98364); type: in vivo; conditions: human, plasma, 4 mg; for concentration at 2 h: Day 7, 2 h; for concentration at 3 h: Day 7, 3 h; for concentration at 4 h: Day 7, 4 h; for concentration at 5 h: Day 7, 5 h; for concentration at 6 h: Day 7, 6 h; for concentration at 8 h: Day 7, 8 h; for concentration at 0 h: Day 7, 0 h (t0); for concentration at 0.5 h: Day 7, 0.5 h; for concentration at 1 h: Day 7, 1 h; for concentration at 12 h: Day 7, 12 h; for concentration at 24 h: Day 7, 24 h
Description: The remaining two subjects in each dosing cohort received placebo.

symptoms of BPH [4] = experiment: Study D: 8 mg Silodosin Once Daily (SI04009), U.S. Phase 3 Study; type: in vivo, human; conditions: 8 mg once daily
Description: as §1

symptoms of BPH [5] = experiment: Study A: 4 mg Silodosin Twice Daily (KMD-202), Japanese Phase 2 Study; type: in vivo, human; conditions: 4 mg twice daily
Description: Patients were males who were at least 50 years of age and who had at least two of the following three variables classified as moderate, or at least one variable classified as severe: IPSS/AUASS, Qmax and QoL. In addition, the results for IPSS/AUASS for studies A, B, D and E are illustrated in FIGS. 3 to 6, respectively, and the results for Qmax for studies A, B, D and E are illustrated in FIGS. 7 to 10, respectively.

[6] = 4 mg once daily 7 days, individual subjects, read-out: Blood Plasma Concentrations
[7] = male, 4 mg once daily 7 days, mean, read-out: Blood Plasma Concentrations
[8] = male, 4 mg twice daily 7 days (simulated from Table 1a), read-out: Estimated Blood Plasma Concentrations

C[C@H](Cc1cc2c(c(C(N)=O)c1)N(CCCO)CC2)NCCOc1ccccc1OCC(F)(F)F [Silodosin]
Incidence of Adverse Events: Dizziness (symptoms of BPH [1]): 3.9 % of patients
Incidence of Adverse Events: Orthostatic Hypotension (symptoms of BPH [1]): 2.6 % of patients
Mean Change From Baseline (CFB) in Maximum Flow Rate (symptoms of BPH [1]; 2-6 hrs after 1st dose): 2.9 mL/s
IPSS/AUASS baseline value (symptoms of BPH [1]; Week 0): 21.2
Maximum Flow Rate baseline value (symptoms of BPH [1]; Week 0): 8.4 mL/s
Mean Change From Baseline (CFB) in IPSS/AUASS (symptoms of BPH [1]; Week 0.5): −4.4
Mean Change From Baseline (CFB) in IPSS/AUASS (symptoms of BPH [1]; Week 1): −5.0
Mean Change From Baseline (CFB) in Maximum Flow Rate (symptoms of BPH [1]; Week 1): 2.9 mL/s
Mean Change From Baseline (CFB) in IPSS/AUASS (symptoms of BPH [1]; Week 2): −5.6
Mean Change From Baseline (CFB) in Maximum Flow Rate (symptoms of BPH [1]; Week 2): 2.9 mL/s
Mean Change From Baseline (CFB) in IPSS/AUASS (symptoms of BPH [1]; Week 4): −6.2
Mean Change From Baseline (CFB) in Maximum Flow Rate (symptoms of BPH [1]; Week 4): 2.7 mL/s
Mean Change From Baseline (CFB) in IPSS/AUASS (symptoms of BPH [1]; Week 12): −6.6
Mean Change From Baseline (CFB) in Maximum Flow Rate (symptoms of BPH [1]; Week 12): 3.1 mL/s
Incidence of Adverse Events: Syncope (symptoms of BPH [1]; one subject, using excluded medication Prazosin): 0.4^1 % of patients
efficacy in treating LUTS associated with BPH compared with 0.2 mg tamsulosin once daily [2]: comparable efficacy
concentration at 2 h [3, 6]: 35.3 ng/mL
concentration at 3 h [3, 6]: 24.4 ng/mL
concentration at 4 h [3, 6]: 16.6 ng/mL
concentration at 5 h [3, 6]: 13.3 ng/mL
concentration at 6 h [3, 6]: 8.9 ng/mL
concentration at 8 h [3, 6]: 6.14 ng/mL
concentration at 0 h [3, 7]: 4.63 ng/mL
concentration at 0.5 h [3, 7]: 5.57 ng/mL
concentration at 1 h [3, 7]: 21.2 ng/mL
concentration at 2 h [3, 7]: 31.5 ng/mL
concentration at 3 h [3, 7]: 18.4 ng/mL
concentration at 4 h [3, 7]: 13 ng/mL
concentration at 5 h [3, 7]: 10.3 ng/mL
concentration at 6 h [3, 7]: 7.26 ng/mL
concentration at 8 h [3, 7]: 5.45 ng/mL
concentration at 12 h [3, 7]: 3.31 ng/mL
concentration at 24 h [3, 7]: 2.01 ng/mL
concentration at […] ([3]; male, 4 mg once daily 7 days, Day 7, […], mean, read-out: Blood Plasma Concentrations): 4.67 ng/mL
concentration at 0 h [3, 8]: 4.63 ng/mL
concentration at 0.5 h [3, 8]: 5.57 ng/mL
concentration at 1 h [3, 8]: 21.2 ng/mL
concentration at 2 h [3, 8]: 31.5 ng/mL
concentration at 3 h [3, 8]: 18.4 ng/mL
concentration at 4 h [3, 8]: 13 ng/mL
concentration at 5 h [3, 8]: 10.3 ng/mL
concentration at 6 h [3, 8]: 7.26 ng/mL
concentration at 8 h [3, 8]: 5.45 ng/mL
concentration at 12 h [3, 8]: 3.31 ng/mL
concentration at 12.25 h ([3]; male, 4 mg twice daily 7 days (simulated from Table 1a), Day 7, 12.25 h, read-out: Estimated Blood Plasma Concentrations): 4.67 ng/mL
concentration at 13 h ([3]; male, 4 mg twice daily 7 days (simulated from Table 1a), Day 7, 13 h, read-out: Estimated Blood Plasma Concentrations): 21.2 ng/mL
concentration at 14 h ([3]; male, 4 mg twice daily 7 days (simulated from Table 1a), Day 7, 14 h, read-out: Estimated Blood Plasma Concentrations): 31.5 ng/mL
concentration at 15 h ([3]; male, 4 mg twice daily 7 days (simulated from Table 1a), Day 7, 15 h, read-out: Estimated Blood Plasma Concentrations): 18.4 ng/mL
concentration at 16 h ([3]; male, 4 mg twice daily 7 days (simulated from Table 1a), Day 7, 16 h, read-out: Estimated Blood Plasma Concentrations): 13 ng/mL
concentration at 17 h ([3]; male, 4 mg twice daily 7 days (simulated from Table 1a), Day 7, 17 h, read-out: Estimated Blood Plasma Concentrations): 10.3 ng/mL
concentration at 18 h ([3]; male, 4 mg twice daily 7 days (simulated from Table 1a), Day 7, 18 h, read-out: Estimated Blood Plasma Concentrations): 4.63 ng/mL
concentration at 20 h ([3]; male, 4 mg twice daily 7 days (simulated from Table 1a), Day 7, 20 h, read-out: Estimated Blood Plasma Concentrations): 4.67 ng/mL
concentration at 24 h [3, 8]: 5.57 ng/mL
Incidence of Adverse Events: Dizziness (symptoms of BPH [4]): 2.6 % of patients
Incidence of Adverse Events: Orthostatic Hypotension (symptoms of BPH [4]): 2.6 % of patients
Incidence of Adverse Events: Syncope (symptoms of BPH [4]): 0 % of patients
Mean Change From Baseline (CFB) in Maximum Flow Rate (symptoms of BPH [4]; 2-6 hrs after 1st dose): 2.7 mL/s
IPSS/AUASS baseline value (symptoms of BPH [4]; Week 0): 21.5
Maximum Flow Rate baseline value (symptoms of BPH [4]; Week 0): 9.0 mL/s
Mean Change From Baseline (CFB) in IPSS/AUASS (symptoms of BPH [4]; Week 0.5): −3.9
Mean Change From Baseline (CFB) in IPSS/AUASS (symptoms of BPH [4]; Week 1): −4.5
Mean Change From Baseline (CFB) in Maximum Flow Rate (symptoms of BPH [4]; Week 1): 2.2 mL/s
Mean Change From Baseline (CFB) in IPSS/AUASS (symptoms of BPH [4]; Week 2): −5.3
Mean Change From Baseline (CFB) in Maximum Flow Rate (symptoms of BPH [4]; Week 2): 2.6 mL/s
Mean Change From Baseline (CFB) in IPSS/AUASS (symptoms of BPH [4]; Week 4): −5.9
Mean Change From Baseline (CFB) in Maximum Flow Rate (symptoms of BPH [4]; Week 4): 2.4 mL/s
Mean Change From Baseline (CFB) in IPSS/AUASS (symptoms of BPH [4]; Week 12): −6.7
Mean Change From Baseline (CFB) in Maximum Flow Rate (symptoms of BPH [4]; Week 12): 2.1 mL/s
Incidence of Adverse Events: Dizziness (symptoms of BPH [5]): 2.2 % of patients
Incidence of Adverse Events: Orthostatic Hypotension (symptoms of BPH [5]): 1.1 % of patients
Incidence of Adverse Events: Syncope (symptoms of BPH [5]): 0 % of patients
IPSS/AUASS baseline value (symptoms of BPH [5]; Week 0): 18.7
Maximum Flow Rate baseline value (symptoms of BPH [5]; Week 0): 10.70 mL/s
Mean Change From Baseline (CFB) in IPSS/AUASS (symptoms of BPH [5]; Week 2): −5.6
Mean Change From Baseline (CFB) in IPSS/AUASS (symptoms of BPH [5]; Week 4): −6.6
Mean Change From Baseline (CFB) in Maximum Flow Rate (symptoms of BPH [5]; Week 4): 1.31 mL/s
